Data: patent publication US20240025912A1 (Merck Sharp & Dohme LLC, priority 2022, published 2024)

What follows are compounds tested against GST-RIPK1 (recombinant GST-RIPK1 kinase domain (residues 1-327)) (Homo sapiens (Human), UniProt Q13546) (assay: RIPK1-ADP-Glo Enzymatic Assay). Conditions: 25 nM GST-RIPK1, 300 μM ATP, 3 μM dephosphorylated-MBP, 30 min pre-incubation, 150 min reaction.
Type: biochemical
Method: The enzymatic activity of RIPK1 is measured using an assay derived from ADP-Glo kit (TMPromega), which provides a luminescent-based ADP detection system. Specifically, the ADP generated by RIPK1 kinase is proportionally detected as luminescent signals in a homogenous fashion. In this context, the assessment of the inhibitory effect of small molecules (EC50) is measured by the effectiveness of the compounds to inhibit the ATP to ADP conversion by RIPK1.
In this assay, the potency (EC50) of each compound was determined from a ten-point (1:3 serial dilution; top compound concentration of 100000 nM) titration curve using the following outlined procedure. To each well of a white ProxiPlus 384 well-plate, 30 nL of compound (1% DMSO in final assay volume of 3 μL) was dispensed, followed by the addition of 2 μL of 1× assay buffer (25 mM Hepes 7.3, 20 mM MgCl2, 50 mM NaCl, 1 mM DTT, 0.005% Tween20, and 0.02% BSA) containing 37.5 nM of GST-RIPK1 (recombinant GST-RIPK1 kinase domain (residues 1-327) enzyme produced from baculovirus-transfected Sf21 cells: MW 62 kDa). Plates were placed in an ambient temperature humidified chamber for a 30 min pre-incubation with compound. Subsequently, each reaction was initiated by the addition of 1 μL 1× assay buffer containing 900 μM ATP and 3 μM dephosphorylated-MBP substrate. The final reaction in each well of 3 μL consists of 25 nM of GST-RIPK1, 300 μM ATP, and 3 μM dephosphorylated-MBP. Kinase reactions were allowed to proceed for 150 min prior to adding ADP-Glo reagents per Promega's outlined kit protocol. Dose-response curves were generated by plotting percent effect (% product conversion; Y-axis) vs. Log 10 compound concentrations (X-axis). EC50 values were calculated using a non-linear regression, four-parameters sigmoidal dose-response model.

Sequence of GST-RIPK1 (recombinant GST-RIPK1 kinase domain (residues 1-327)) (Q13546 1-327): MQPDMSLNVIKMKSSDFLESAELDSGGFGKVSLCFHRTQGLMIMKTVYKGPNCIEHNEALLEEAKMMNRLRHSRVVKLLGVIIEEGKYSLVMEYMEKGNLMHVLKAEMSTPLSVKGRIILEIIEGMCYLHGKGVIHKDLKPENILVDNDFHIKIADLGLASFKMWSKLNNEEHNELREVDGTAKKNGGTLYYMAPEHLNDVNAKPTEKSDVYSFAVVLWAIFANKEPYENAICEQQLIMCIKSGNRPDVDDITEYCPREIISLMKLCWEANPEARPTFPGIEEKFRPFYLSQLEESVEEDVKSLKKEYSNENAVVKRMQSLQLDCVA

| SMILES | EC50 |
| --- | --- |
| O=c1n(C23CC(Cl)(C2)C3)nc2n1[C@H](c1cc(F)cc(F)c1)CC2 [Compound 1-8, (5S)-2-(3-chlorobicyclo[1.1.1]pentan-1-yl)-5-(3,5-difluorophenyl)-2,5,6,7-tetrahydro-3H-pyrrolo[2,1-c][1,2,4]triazol-3-one] | 21.8 nM |
| O=c1n(C23CC(F)(C2)C3)nc2n1[C@H](c1ccccc1F)CC2 [Compound 1-9, (5S)-2-(3-fluorobicyclo[1.1.1]pentan-1-yl)-5-(2-fluorophenyl)-2,5,6,7-tetrahydro-3H-pyrrolo[2,1-c][1,2,4]triazol-3-one] | 26.1 nM |
| O=c1n(C23CC(F)(C2)C3)nc2n1[C@H](c1cncc(F)c1)CC2 [Compound 1-10, (5S)-2-(3-fluorobicyclo[1.1.1]pentan-1-yl)-5-(5-fluoropyridin-3-yl)-2,5,6,7-tetrahydro-3H-pyrrolo[2,1-c][1,2,4]triazol-3-one] | 272 nM |
| N#CC12CC(n3nc4n(c3=O)[C@H](c3cncc(F)c3)CC4)(C1)C2 [Compound 1-11, 3-[(5S)-5-(5-fluoropyridin-3-yl)-3-oxo-6,7-dihydro-3H-pyrrolo[2,1-c][1,2,4]triazol-2(5H)-yl]bicyclo[1.1.1]pentane-1-carbonitrile] | 300 nM |
| O=c1n(C23CC(c4ccccc4)(C2)C3)nc2n1[C@H](c1cc(F)cc(F)c1)CC2 [Compound 1-12, (5S)-5-(3,5-difluorophenyl)-2-(3-phenylbicyclo[1.1.1]pentan-1-yl)-2,5,6,7-tetrahydro-3H-pyrrolo[2,1-c][1,2,4]triazol-3-one] | 49.1 nM |
| O=c1n(C23CC(c4ccccc4)(C2)C3)nc2n1[C@H](c1cncc(F)c1)CC2 [Compound 1-13, (5S)-5-(5-fluoropyridin-3-yl)-2-(3-phenylbicyclo[1.1.1]pentan-1-yl)-2,5,6,7-tetrahydro-3H-pyrrolo[2,1-c][1,2,4]triazol-3-one] | 514 nM |
| CC12CC(n3nc4n(c3=O)[C@H](c3cc(F)cc(F)c3)CC4)(CO1)C2 [Compound 1-14, (5S)-5-(3,5-difluorophenyl)-2-(1-methyl-2-oxabicyclo[2.1.1]hexan-4-yl)-2,5,6,7-tetrahydro-3H-pyrrolo[2,1-c][1,2,4]triazol-3-one] | 152 nM |
| O=c1n(C23CC(Cl)(C2)C3)nc2n1[C@H](c1cncc(F)c1)CC2 [Compound 1-15, (5S)-2-(3-chlorobicyclo[1.1.1]pentan-1-yl)-5-(5-fluoropyridin-3-yl)-2,5,6,7-tetrahydro-3H-pyrrolo[2,1-c][1,2,4]triazol-3-one] | 111 nM |
| O=c1n(C23CC(F)(C2)C3)nc2n1[C@H](c1cccc(F)c1)CC2 [Compound 1-16, (S)-2-(3-fluorobicyclo[1.1.1]pentan-1-yl)-5-(3-fluorophenyl)-2,5,6,7-tetrahydro-3H-pyrrolo[2,1-c][1,2,4]triazol-3-one] | 23.1 nM |
| N#CC12CC(n3nc4n(c3=O)[C@H](c3ccccc3)CC4)(C1)C2 [Compound 1-17, 3-[(5S)-3-oxo-5-phenyl-6,7-dihydro-3H-pyrrolo[2,1-c][1,2,4]triazol-2(5H)-yl]bicyclo[1.1.1]pentane-1-carbonitrile] | 36.9 nM |
| COC(=O)C12CC(n3nc4n(c3=O)[C@H](c3cc(F)cc(F)c3)CC4)(C1)C2 [Compound 1-18, methyl 3-[(5S)-5-(3,5-difluorophenyl)-3-oxo-6,7-dihydro-3H-pyrrolo[2,1-c][1,2,4]triazol-2(5H)-yl]bicyclo[1.1.1]pentane-1-carboxylate] | 114 nM |
| COC(=O)C12CC(n3nc4n(c3=O)[C@H](c3ccccc3)CC4)(C1)C2 [Compound 1-19, methyl 3-[(5S)-3-oxo-5-phenyl-6,7-dihydro-3H-pyrrolo[2,1-c][1,2,4]triazol-2(5H)-yl]bicyclo[1.1.1]pentane-1-carboxylate] | 289 nM |
| O=c1n(C23C4C5C2C2C3C4C52F)nc2n1[C@H](c1cc(F)cc(F)c1)CC2 (stereo partly drawn) [Compound 1-20, (5S)-5-(3,5-difluorophenyl)-2-(4-fluoropentacy-clo[4.2.0.0~2,5~.0~3,8~.0~4,7~]octan-1-yl)-2,5,6,7-tetrahydro-3H-pyrrolo[2,1-c][1,2,4]triazol-3-one] | 38.5 nM |
| N#CC12C3C4C1C1C2C3C41n1nc2n(c1=O)[C@H](c1cc(F)cc(F)c1)CC2 (stereo partly drawn) [Compound 1-21, 4-[(5S)-5-(3,5-difluorophenyl)-3-oxo-6,7-dihydro-3H-pyrrolo[2,1-c][1,2,4]triazol-2(5H)-yl]penta-cyclo[4.2.0.0~2,5~.0~3,8~.0~4.7~] octane-1-carbonitrile] | 141 nM |
| N#CC12CC(n3nc4n(c3=O)[C@H](c3cncc(Cl)c3)CC4)(C1)C2 [Compound 1-22, (S)-3-(5-(5-chloropyridin-3-yl)-3-oxo-6,7-dihydro-3H-pyrrolo[2,1-c][1,2,4]triazol-2(5H)-yl)bicyclo[1.1.1]pentane-1-carbonitrile] | 485 nM |
| N#CC12CC(n3nc4n(c3=O)[C@H](c3ccccc3F)CC4)(C1)C2 [Compound 1-23, 3-[(5S)-5-(2-fluorophenyl)-3-oxo-6,7-dihydro-3H-pyrrolo[2,1-c][1,2,4]triazol-2(5H)-yl]bicyclo[1.1.1]pentane-1-carbonitrile] | 31.8 nM |
| N#CC12CC(n3nc4n(c3=O)[C@H](c3cccc(F)c3)CC4)(C1)C2 [Compound 1-24, (S)-3-(5-(3-fluorophenyl)-3-oxo-6,7-dihydro-3H-pyrrolo[2,1-c][1,2,4]triazol-2(5H)-yl)bicyclo[1.1.1]pentane-1-caronitrile] | 29.7 nM |
| O=c1n(C23CCC(CC2)CC3)nc2n1[C@H](c1cc(F)cc(F)c1)CC2 [Compound 1-25, (5S)-2-(bicyclo[2.2.2]octan-1-yl)-5-(3,5-difluorophenyl)-2,5,6,7-tetrahydro-3H-pyrrolo[2,1-c][1,2,4]triazol-3-one] | 685 nM |
| COC12CCC(n3nc4n(c3=O)[C@H](c3cc(F)cc(F)c3)CC4)(CC1)C2 [Compound 1-26, (5S)-5-(3,5-difluorophenyl)-2-(4-methoxybicyclo[2.2.1]heptan-1-yl)-2,5,6,7-tetrahydro-3H-pyrrolo[2,1-c][1,2,4]triazol-3-one] | 377 nM |
| O=c1n(C23CCC(C(F)F)(CC2)C3)nc2n1[C@H](c1cc(F)cc(F)c1)CC2 [Compound 1-27, (5S)-2-[4-(difluoromethyl)bicyclo[2.2.1]heptan-1-yl]-5-(3,5-difluorophenyl)-2,5,6,7-tetrahydro-3H-pyrrolo[2,1-c][1,2,4]triazol-3-one] | 537 nM |
| O=c1n(C23CC(C(F)F)(C2)C3)nc2n1[C@H](c1cc(F)cc(F)c1)CC2 [Compound 1-28, (5S)-2-[3-(difluoromethyl)bicyclo[1.1.1]pentan-1-yl]-5-(3,5-difluorophenyl)-2,5,6,7-tetrahydro-3H-pyrrolo[2,1-c][1,2,4]triazol-3-one] | 25.9 nM |
| N#CC12CCC(n3nc4n(c3=O)[C@H](c3cc(F)cc(F)c3)CC4)(CC1)C2 [Compound 1-29, 4-[(5S)-5-(3,5-difluorophenyl)-3-oxo-6,7-dihydro-3H-pyrrolo[2,1-c][1,2,4]triazol-2(5H)-yl]bicyclo[2.2.1]heptane-1-carbonitrile] | 68 nM |
| N#CC12CCC(n3nc4n(c3=O)[C@H](c3ccccc3)CC4)(CC1)C2 [Compound 1-30, 4-[(5S)-3-oxo-5-phenyl-6,7-dihydro-3H-pyrrolo[2,1-c][1,2,4]triazol-2(5H)-yl]bicyclo[2.2.1]heptane-1-carbonitrile] | 87.4 nM |
| O=c1n(C23CC(C(F)F)(C2)C3)nc2n1[C@H](c1ccccc1)CC2 [Compound 1-31, (5S)-2-[3-(difluoromethyl)bicyclo[1.1.1]pentan-1-yl]-5-phenyl-2,5,6,7-tetrahydro-3H-pyrrolo[2,1-c][1,2,4]triazol-3-one] | 36.8 nM |
| CC(F)(F)C12CC(n3nc4n(c3=O)[C@H](c3ccccc3)CC4)(C1)C2 [Compound 1-32, (5S)-2-[3-(1,1-difluoroethyl)bicyclo[1.1.1]pentan-1-yl]-5-phenyl-2,5,6,7-tetrahydro-3H-pyrrolo[2,1-c][1,2,4]triazol-3-one] | 36.4 nM |
| O=c1n(C23CC(C(F)F)(C2)C3)nc2n1[C@H](c1cccc(F)c1)CC2 [Compound 1-33, (5S)-2-[3-(difluoromethyl)bicyclo[1.1.1]pentan-1-yl]-5-(3-fluorophenyl)-2,5,6,7-tetrahydro-3H-pyrrolo[2,1-c][1,2,4]triazol-3-one] | 30.4 nM |
| CC(F)(F)C12CC(n3nc4n(c3=O)[C@H](c3cccc(F)c3)CC4)(C1)C2 [Compound 1-34, (5S)-2-[3-(1,1-difluoroethyl)bicyclo[1.1.1]pentan-1-yl]-5-(3-fluorophenyl)-2,5,6,7-tetrahydro-3H-pyrrolo[2,1-c][1,2,4]triazol-3-one] | 26.9 nM |
| N#CC12CCC(n3nc4n(c3=O)[C@H](c3cc(F)cc(F)c3)CC4)(C1)C2 [Compound 1-35, 4-[(5S)-5-(3,5-difluorophenyl)-3-oxo-6,7-dihydro-3H-pyrrolo[2,1-c][1,2,4]triazol-2(5H)-yl]bicyclo[2.1.1]hexane-1-carbonitrile] | 49.7 nM |
